Key:
[1] = Kinetic solubility in aqueous buffer; format: physicochemical; conditions: 2 hrs at 25 °C
Method: Experimental Methods: 30 µL of the 10 mM DMSO stock solution of the compound to be test was placed in a solubility sample plate (duplicate), 970 µL of aqueous buffer solution was added to the plate, and the plate was sealed with a sealing membrane and shaken at 1100 rpm for 2 hrs at 25 °C. The sample in the solubility plate was transferred to a filter plate, and filtered to obtain a filtrate. 10 µL of the filtrate was transferred into 980 µL of methanol along with 10 µL of DMSO, and then the solution was diluted 10-fold with methanol:water (1:1), and the resulting sample was analyzed by LC-MS/MS to obtain Area (filtered). Separately, 10 mM of the DMSO stock solution of the compound to be test was diluted to 300 µM with DMSO. 10 µL of this 300 µM DMSO solution and 10 µL of aqueous buffer solution were added into 980 µL of methanol, and then diluted 10-fold with methanol:water (1:1), and the resulting sample was analyzed by LC-MS/MS to obtain Area (std). The kinetic solubility was calculated according to the following formula: Solubility(μM) = (Areafiltered × DFfiltered)/(Areastd × DFstd) × [std] × DFstd [formula] wherein DF is the dilution factor.

[2] = test system: HaCaT cells; experiment: ROS content / ROS scavenging rate in HaCaT after UVB radiation (DCFH-DA); format: cell-based, human; conditions: for ROS scavenging rate: HaCaT cells after UVB radiation
Description: Oxidative reactions such as respiration and metabolism in organisms generate reactive free radicals. Under normal bodily conditions, free radicals have a stable scavenging system, so that the free radical content of the body is kept at a relatively low concentration. Oxidative stress (OS) refers to an imbalance between oxidation and antioxidation in the body due to endogenous and/or exogenous stimuli, resulting in excessive free radical production. Excessive free radicals produce a series of negative effects in the body, including oxidative damage to biomolecules and further causing cell death and tissue damage, etc. In organisms, almost all ROS, except for trace amounts utilized by the body, should be promptly scavenged. Medium Wave Erythema Effect Ultraviolet (UVB) (280-319 nm) radiation damage is the most important factor leading to photoaging of the skin, primarily damaging keratinocytes (HaCaT), specifically manifested as the accumulation of photoproducts, increased ROS, and exacerbated oxidative damage, etc. Over long periods of evolution, organisms have developed a complete antioxidant system, maintaining a dynamic balance between the production and elimination of free radicals. This is an adaptive mechanism of organisms, and the main members include antioxidant enzymes, antioxidants, and proteins that separate transition metals, all of which can specifically limit oxidative damage to the body. Therefore, the antioxidant efficacy of a test compound can be evaluated by detecting the ROS scavenging rate in keratinocytes after UVB radiation.
• 1) Cell inoculation: HaCaT cells were inoculated into a 96-well plate at 2 × 10^4/well, cultured in an incubator (37 °C, 5% CO2) for 12 hrs, and a control group (120 mJ/cm^2 + vehicle control), a low concentration group (120 mJ/cm^2 + low concentration compound), a medium concentration group (120 mJ/cm^2 + medium concentration compound), and a high concentration group (120 mJ/cm^2 + high concentration compound) were respectively provided. • 2) UVB modeling: The HaCaT cells were washed 3 times with D'Hanks before UVB radiation, 50 µL of D'Hanks was added into the wells, to make the cells to be immersed, and the control group was coated with tinfoil and placed in the dark. For the test groups, UVB modeling was performed on the group requiring radiation, respectively. • 3) Administration: DMEM medium containing different concentrations of compound were added to each test group for continued culture for 24 hrs. • 4) Transferring the ROS fluorescent probe: DCFH-DA was Diluted to a final concentration of 10 µmol/L using PBS at a dilution ratio of 1:1000. The culture medium in all wells except the bare cell wells was discarded. After washing three times with PBS, 200 µL of DCFH-DA working solution was added to each well, then incubated in a CO2 incubator for 30 min, and after incubation, the cells in each well were washed with PBS for 3 times. • 5) Fluorescence analysis. The 96-well plate to be tested was placed on the detection stage of the fluorescence microplate reader, with the […] set to 525 nm, the excitation light wavelength set to 488 nm, and the reading was analyzed.
ROS scavenging rate (%) = (S(Modelcontrolgroup)−S(Samplegroup))/(S(Modelcontrolgroup)) × 100% [formula] wherein S is fluorescence intensity.

[3] = test system: COL7A1; experiment: Collagen VII gene expression in HaCaT human immortalized keratinocytes; format: cell-based; conditions: 24 hrs, dose-dependent
Description: Skin fragility is partly attributed to changes in hemidesmosomes and the expression downregulation of various collagen proteins (Collagen I, III, IV, VII) or laminins (such as LN-5) at the dermal-epidermal junction. LN-5 has been proven to be a component of anchoring fibers in the basement membrane of the skin, cornea, conjunctiva, and other tissues. LN-5 participates in cell-cell interactions through the mediation of integrins and proteoglycans, thereby playing a crucial role in cell adhesion, growth, migration, and differentiation. The appearance of wrinkles is closely related to the normal synthesis and expression of collagen and laminins. Therefore, the increase of the above collagen content and LN-5 can achieve a certain role in resisting wrinkles, and plays an important role in the aging process of the skin. Therefore, the anti-wrinkle effect of the compound to be tested was evaluated by detecting the level of Collage I protein of […] by ELISA, and detecting the transcription levels of epidermal cells (keratinocytes) III, IV, VII and LN -5 by Real-Time PCR. The following Test Examples 8-1 and 8-2 evaluated the anti-wrinkle efficacy of compounds using HaCaT human immortalized keratinocytes and HSF human skin fibroblasts. […]

[4] = test system: wild-type AB strain zebrafish; experiment: Zebrafish tail amputation model, wound repair efficacy (caudal fin area); format: in vivo; conditions: I-8 at 1, 3, and 9 µg/mL, 48 hrs; compared with the modeling group, statistical significance
Method: Experimental animal: Healthy wild-type AB strain zebrafish at 3 dpf (days post fertilization)
Evaluation of wound repair efficacy: Healthy AB strain zebrafish were taken as experimental animal, and randomly divided into blank control group, modeling group, positive control group, and sample group. The zebrafish in the blank control group were treated with culture water; the zebrafish in the modeling group were treated with culture water after cutting the caudal fin; the zebrafish in the positive control group and sample group were treated with 600 µg/mL hyaluronic acid and I-8 with different concentrations (1, 3, 9 µg/mL) respectively after cutting the caudal fin. The larva fish in above groups were placed in a constant temperature incubator at 28.5 °C and kept in continuous darkness for 48 hrs, with the culture medium changed once every 24 hrs. Image-Pro Plus software was used to calculate the area of the caudal fin of each group of zebrafish. The data were statistically analyzed using GraphPad software.

Structure (SMILES): O=S1(=O)Oc2cc(O)ccc2-c2ccc(O)cc21 [Compound I-8]
- solubility kinetic at 2 h [1]: > 300 µM
- ROS content in HaCaT after UVB radiation ([2]; HaCaT, UVB 120 mJ/cm^2, 24 hrs, low, medium, high concentration): scavenging ROS in a dose-dependent manner
- ROS scavenging rate ([2]; content 0.00015625%): 12%
- ROS scavenging rate ([2]; content 0.000625%): 22%
- ROS scavenging rate ([2]; content 0.0025%): 26%
- COL7A1 gene expression [3]: upregulate
- caudal fin area [4]: increased

— patent EP4803511A1, “SMALL MOLECULE COMPOUND HAVING SULFONIC ACID OR SULFINIC ACID LACTONE STRUCTURE, COMPOSITION AND USE THEREOF” (Hangzhou Phecdamed Co., Ltd., priority 2023, dated 2025)
